Where two headings read alike, the source gives them in different places.
Experiments:
Format in all cases: binding
broad panel of kinases [1] = biological target: broad panel of kinases (Homo sapiens, UniProt P43405); conditions: SYK; 1 μM
broad panel of kinases [2] = biological target: broad panel of kinases (Homo sapiens, UniProt Q9Y616); conditions: IRAK3; 1 μM
broad panel of kinases [3] = biological target: broad panel of kinases (Homo sapiens, UniProt Q9UHD2); conditions: TBK1; 1 μM
broad panel of kinases [4] = biological target: broad panel of kinases (Homo sapiens, UniProt Q96BR1); conditions: SGK3; 1 μM
broad panel of kinases [5] = biological target: broad panel of kinases (Homo sapiens, UniProt P41240); conditions: CSK; 1 μM
broad panel of kinases (Homo sapiens, UniProt P41240), sequence (P41240 2-450 limits assumed): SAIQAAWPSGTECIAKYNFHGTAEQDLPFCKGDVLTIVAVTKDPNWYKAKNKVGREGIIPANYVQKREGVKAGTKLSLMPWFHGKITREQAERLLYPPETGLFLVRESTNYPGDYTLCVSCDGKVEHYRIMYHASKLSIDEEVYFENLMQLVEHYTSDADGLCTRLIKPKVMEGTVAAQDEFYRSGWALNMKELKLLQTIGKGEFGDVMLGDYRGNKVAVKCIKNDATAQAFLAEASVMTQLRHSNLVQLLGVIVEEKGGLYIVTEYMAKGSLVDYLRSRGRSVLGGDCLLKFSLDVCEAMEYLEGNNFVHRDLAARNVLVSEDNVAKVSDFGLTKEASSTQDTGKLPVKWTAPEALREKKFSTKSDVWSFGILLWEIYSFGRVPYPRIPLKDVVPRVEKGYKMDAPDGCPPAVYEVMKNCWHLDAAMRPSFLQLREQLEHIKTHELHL

broad panel of kinases [6] = biological target: broad panel of kinases (Homo sapiens, UniProt Q16832); conditions: DDR2; 1 μM
broad panel of kinases (Homo sapiens, UniProt Q16832), sequence (Q16832 22-855 limits assumed): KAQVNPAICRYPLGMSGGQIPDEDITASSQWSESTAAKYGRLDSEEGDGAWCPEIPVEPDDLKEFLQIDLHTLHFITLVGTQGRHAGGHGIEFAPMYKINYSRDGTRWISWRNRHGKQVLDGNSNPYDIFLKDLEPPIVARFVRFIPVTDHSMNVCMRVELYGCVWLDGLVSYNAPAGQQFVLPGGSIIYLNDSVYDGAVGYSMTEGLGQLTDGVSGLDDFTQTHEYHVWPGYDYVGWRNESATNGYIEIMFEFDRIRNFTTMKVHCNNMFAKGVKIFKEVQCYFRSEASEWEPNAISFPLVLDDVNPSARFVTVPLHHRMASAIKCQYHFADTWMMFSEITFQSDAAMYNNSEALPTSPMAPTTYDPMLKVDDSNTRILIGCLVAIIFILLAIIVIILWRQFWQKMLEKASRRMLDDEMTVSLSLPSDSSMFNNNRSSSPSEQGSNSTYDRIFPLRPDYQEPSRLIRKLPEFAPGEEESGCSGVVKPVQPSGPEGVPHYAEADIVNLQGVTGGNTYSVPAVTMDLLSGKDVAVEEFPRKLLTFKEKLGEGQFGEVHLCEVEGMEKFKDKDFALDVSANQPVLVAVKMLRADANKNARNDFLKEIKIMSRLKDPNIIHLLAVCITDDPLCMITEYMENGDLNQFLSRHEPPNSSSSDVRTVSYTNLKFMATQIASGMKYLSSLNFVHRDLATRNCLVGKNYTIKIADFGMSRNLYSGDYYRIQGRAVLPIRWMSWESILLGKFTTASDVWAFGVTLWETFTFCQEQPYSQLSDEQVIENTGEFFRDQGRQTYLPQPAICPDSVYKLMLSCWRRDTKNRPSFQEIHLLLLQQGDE

broad panel of kinases [7] = biological target: broad panel of kinases (Homo sapiens, UniProt Q9Y5S2); conditions: MRCKB; 1 μM
broad panel of kinases [8] = biological target: broad panel of kinases (Homo sapiens, UniProt O75914); conditions: PAK3; 1 μM
broad panel of kinases [9] = biological target: broad panel of kinases (Homo sapiens, UniProt P35590); conditions: TIE1; 1 μM
broad panel of kinases [10] = biological target: broad panel of kinases (Homo sapiens, UniProt P07949, V804L); conditions: RET(V804L); 1 μM
broad panel of kinases (Homo sapiens, UniProt P07949, V804L), sequence (P07949 29-1114 V804L limits assumed): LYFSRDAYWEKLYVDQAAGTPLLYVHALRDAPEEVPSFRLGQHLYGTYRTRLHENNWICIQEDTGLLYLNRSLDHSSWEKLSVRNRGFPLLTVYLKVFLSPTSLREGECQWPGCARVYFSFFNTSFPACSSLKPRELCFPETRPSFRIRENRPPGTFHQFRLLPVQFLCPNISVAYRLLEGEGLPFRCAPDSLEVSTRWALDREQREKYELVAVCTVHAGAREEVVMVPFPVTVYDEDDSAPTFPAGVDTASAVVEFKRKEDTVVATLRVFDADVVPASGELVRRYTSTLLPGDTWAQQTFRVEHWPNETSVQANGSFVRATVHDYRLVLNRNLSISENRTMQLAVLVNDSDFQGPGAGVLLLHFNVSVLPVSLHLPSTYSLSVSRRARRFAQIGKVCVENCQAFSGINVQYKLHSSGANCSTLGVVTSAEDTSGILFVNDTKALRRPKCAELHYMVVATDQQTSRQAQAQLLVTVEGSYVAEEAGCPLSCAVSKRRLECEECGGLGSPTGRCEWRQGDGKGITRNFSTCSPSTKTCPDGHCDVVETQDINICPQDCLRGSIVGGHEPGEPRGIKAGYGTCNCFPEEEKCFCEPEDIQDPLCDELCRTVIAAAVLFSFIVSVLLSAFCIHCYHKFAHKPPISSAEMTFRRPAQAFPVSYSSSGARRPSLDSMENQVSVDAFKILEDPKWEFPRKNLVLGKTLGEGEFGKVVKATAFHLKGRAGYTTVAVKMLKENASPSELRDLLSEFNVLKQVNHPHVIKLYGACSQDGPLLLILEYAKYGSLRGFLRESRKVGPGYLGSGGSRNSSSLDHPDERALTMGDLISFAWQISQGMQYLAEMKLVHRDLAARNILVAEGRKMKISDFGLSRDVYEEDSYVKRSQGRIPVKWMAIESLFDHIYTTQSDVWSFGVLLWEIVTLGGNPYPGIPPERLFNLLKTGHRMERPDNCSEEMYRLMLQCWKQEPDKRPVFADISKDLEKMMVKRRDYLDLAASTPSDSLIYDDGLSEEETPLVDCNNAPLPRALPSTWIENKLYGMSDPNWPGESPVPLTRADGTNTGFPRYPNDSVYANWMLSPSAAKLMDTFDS

broad panel of kinases [11] = biological target: broad panel of kinases (Homo sapiens, UniProt Q9HBY8); conditions: SGK2; 1 μM
broad panel of kinases [12] = biological target: broad panel of kinases (Homo sapiens, UniProt P49137)
broad panel of kinases [13] = biological target: broad panel of kinases (Homo sapiens, UniProt O75716); conditions: STK16; 1 μM
broad panel of kinases (Homo sapiens, UniProt O75716), sequence (O75716 2-305 limits assumed): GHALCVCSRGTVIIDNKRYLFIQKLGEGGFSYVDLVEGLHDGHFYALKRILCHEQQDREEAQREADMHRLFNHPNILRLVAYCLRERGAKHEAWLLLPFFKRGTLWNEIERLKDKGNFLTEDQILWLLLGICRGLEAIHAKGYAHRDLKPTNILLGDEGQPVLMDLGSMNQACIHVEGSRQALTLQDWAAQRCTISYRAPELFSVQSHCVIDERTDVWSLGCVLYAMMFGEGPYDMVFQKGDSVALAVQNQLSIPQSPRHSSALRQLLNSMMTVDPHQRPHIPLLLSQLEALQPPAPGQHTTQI

broad panel of kinases [14] = biological target: broad panel of kinases (Homo sapiens, UniProt O94804); conditions: LOK; 1 μM
broad panel of kinases [15] = biological target: broad panel of kinases (Homo sapiens, UniProt P30291); conditions: WEE1; 1 μM
broad panel of kinases [16] = biological target: broad panel of kinases (Homo sapiens, UniProt P54646); conditions: AMPK-alpha2; 1 μM
broad panel of kinases [17] = biological target: broad panel of kinases (Homo sapiens, UniProt O60285); conditions: ARK5; 1 μM
broad panel of kinases [18] = biological target: broad panel of kinases (Homo sapiens, UniProt Q86Y07); conditions: VRK2; 1 μM
broad panel of kinases [19] = biological target: broad panel of kinases (Homo sapiens, UniProt P50613); conditions: CDK7; 1 μM
broad panel of kinases (Homo sapiens, UniProt P50613), sequence (P50613 2-346 limits assumed): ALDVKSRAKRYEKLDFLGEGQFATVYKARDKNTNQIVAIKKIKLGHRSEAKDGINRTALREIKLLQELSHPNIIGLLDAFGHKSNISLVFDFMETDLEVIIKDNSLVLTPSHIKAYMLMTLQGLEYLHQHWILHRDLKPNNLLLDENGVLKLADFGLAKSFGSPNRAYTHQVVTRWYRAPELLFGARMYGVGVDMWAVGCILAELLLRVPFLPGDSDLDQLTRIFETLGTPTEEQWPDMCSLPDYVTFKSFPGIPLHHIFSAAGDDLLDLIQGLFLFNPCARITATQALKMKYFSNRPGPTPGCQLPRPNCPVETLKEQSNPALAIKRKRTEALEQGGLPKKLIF

broad panel of kinases [20] = biological target: broad panel of kinases (Homo sapiens, UniProt P00533); conditions: EGFR; 1 μM
broad panel of kinases (Homo sapiens, UniProt P00533), sequence (P00533 25-1210 limits assumed): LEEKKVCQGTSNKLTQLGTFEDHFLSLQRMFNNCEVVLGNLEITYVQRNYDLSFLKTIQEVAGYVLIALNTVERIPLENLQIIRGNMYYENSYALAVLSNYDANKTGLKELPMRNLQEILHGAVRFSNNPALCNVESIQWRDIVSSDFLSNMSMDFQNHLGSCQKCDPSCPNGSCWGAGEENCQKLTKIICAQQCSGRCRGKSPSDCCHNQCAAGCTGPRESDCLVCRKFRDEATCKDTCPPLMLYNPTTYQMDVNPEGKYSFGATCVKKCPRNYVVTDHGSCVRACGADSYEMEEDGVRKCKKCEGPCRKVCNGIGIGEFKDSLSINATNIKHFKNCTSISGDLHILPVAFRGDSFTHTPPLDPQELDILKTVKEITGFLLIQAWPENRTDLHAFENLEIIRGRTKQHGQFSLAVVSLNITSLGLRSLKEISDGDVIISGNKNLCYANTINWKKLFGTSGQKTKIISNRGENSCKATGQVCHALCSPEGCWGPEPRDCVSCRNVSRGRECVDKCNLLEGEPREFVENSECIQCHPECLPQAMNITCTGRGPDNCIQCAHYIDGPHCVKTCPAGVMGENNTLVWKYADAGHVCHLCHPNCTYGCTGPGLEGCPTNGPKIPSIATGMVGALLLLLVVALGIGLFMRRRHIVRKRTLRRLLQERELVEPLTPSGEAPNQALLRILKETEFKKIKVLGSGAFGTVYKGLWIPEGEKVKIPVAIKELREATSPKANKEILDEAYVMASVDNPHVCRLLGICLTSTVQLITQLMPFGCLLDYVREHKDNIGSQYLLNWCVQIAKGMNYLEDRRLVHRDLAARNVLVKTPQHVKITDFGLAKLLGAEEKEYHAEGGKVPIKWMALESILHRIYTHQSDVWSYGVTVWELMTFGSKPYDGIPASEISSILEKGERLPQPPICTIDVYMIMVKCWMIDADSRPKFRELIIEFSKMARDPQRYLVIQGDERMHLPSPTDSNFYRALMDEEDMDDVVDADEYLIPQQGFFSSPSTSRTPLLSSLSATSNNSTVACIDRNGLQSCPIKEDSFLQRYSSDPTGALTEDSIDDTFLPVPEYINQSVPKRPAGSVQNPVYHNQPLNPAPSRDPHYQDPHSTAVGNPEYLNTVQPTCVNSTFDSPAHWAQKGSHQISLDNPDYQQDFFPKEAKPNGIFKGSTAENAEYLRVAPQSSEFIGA

broad panel of kinases [21] = biological target: broad panel of kinases (Homo sapiens, UniProt P53350); conditions: PLK1; 1 μM
broad panel of kinases [22] = biological target: broad panel of kinases (Homo sapiens, UniProt O75676); conditions: 1 μM
broad panel of kinases [23] = biological target: broad panel of kinases (Homo sapiens, UniProt Q9UBE8); conditions: NLK; 1 μM
broad panel of kinases [24] = biological target: broad panel of kinases (Homo sapiens, UniProt Q13470); conditions: TNK1; 1 μM
broad panel of kinases [25] = biological target: broad panel of kinases (Homo sapiens, UniProt P53778); conditions: p38-gamma; 1 μM
broad panel of kinases [26] = biological target: broad panel of kinases (Homo sapiens, UniProt P42336, E542K); conditions: PIK3CA(E542K); 1 μM
broad panel of kinases [27] = biological target: broad panel of kinases (Homo sapiens, UniProt P15056, V600E); conditions: BRAF(V600E); 1 μM
broad panel of kinases (Homo sapiens, UniProt P15056, V600E), sequence (P15056 2-766 V600E limits assumed): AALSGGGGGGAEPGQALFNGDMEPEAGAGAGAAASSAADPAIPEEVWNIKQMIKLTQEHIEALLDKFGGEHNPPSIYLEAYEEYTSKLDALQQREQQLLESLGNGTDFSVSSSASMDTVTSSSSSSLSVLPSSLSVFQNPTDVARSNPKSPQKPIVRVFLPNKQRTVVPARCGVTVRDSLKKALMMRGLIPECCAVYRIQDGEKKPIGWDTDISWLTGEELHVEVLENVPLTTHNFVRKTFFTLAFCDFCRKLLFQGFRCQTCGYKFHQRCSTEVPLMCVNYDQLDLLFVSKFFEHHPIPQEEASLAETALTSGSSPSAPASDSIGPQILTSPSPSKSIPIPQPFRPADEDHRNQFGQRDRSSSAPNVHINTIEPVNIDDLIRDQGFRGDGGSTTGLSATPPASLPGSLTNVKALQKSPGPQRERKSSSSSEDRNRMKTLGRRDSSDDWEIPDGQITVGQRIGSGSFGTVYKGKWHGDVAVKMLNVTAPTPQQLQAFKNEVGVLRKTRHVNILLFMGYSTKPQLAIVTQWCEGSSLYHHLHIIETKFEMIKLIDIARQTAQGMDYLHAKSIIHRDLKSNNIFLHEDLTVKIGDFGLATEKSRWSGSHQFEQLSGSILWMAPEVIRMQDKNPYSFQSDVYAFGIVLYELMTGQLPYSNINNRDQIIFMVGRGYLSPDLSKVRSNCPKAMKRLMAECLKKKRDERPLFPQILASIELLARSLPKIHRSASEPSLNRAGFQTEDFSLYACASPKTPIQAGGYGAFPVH

broad panel of kinases [28] = biological target: broad panel of kinases (Homo sapiens, UniProt Q86Z02); conditions: HIPK1; 1 μM
broad panel of kinases [29] = biological target: broad panel of kinases (Homo sapiens, UniProt O75460); conditions: ERN1; 1 μM
broad panel of kinases [30] = biological target: broad panel of kinases (Homo sapiens, UniProt O14936); conditions: CASK; 1 μM
broad panel of kinases [31] = biological target: broad panel of kinases (Homo sapiens, UniProt Q14164); conditions: IKK-epsilon; 1 μM
broad panel of kinases [32] = biological target: broad panel of kinases (Homo sapiens, UniProt O60331); conditions: PIP5K1C; 1 μM
broad panel of kinases [33] = biological target: broad panel of kinases (Homo sapiens, UniProt O94806); conditions: PRKD3; 1 μM
broad panel of kinases [34] = biological target: broad panel of kinases (Homo sapiens, UniProt Q00537); conditions: PCTK2; 1 μM
broad panel of kinases [35] = biological target: broad panel of kinases (Homo sapiens, UniProt P22694); conditions: PKAC-beta; 1 μM
broad panel of kinases [36] = biological target: broad panel of kinases (Homo sapiens, UniProt Q8NG66); conditions: NEK11; 1 μM
broad panel of kinases [37] = biological target: broad panel of kinases (Homo sapiens, UniProt Q12851); conditions: MAP4K2; 1 μM

Structure (SMILES): C=CC(=O)N1CC[C@H](Nc2nc(CN3CCOCC3)cc(Nc3ncc(C(=O)Nc4c(C)cccc4C)s3)n2)C1 [Example I-2]
- percent of control binding remaining (lower = stronger binding) (broad panel of kinases [1]): 86%
- percent of control binding remaining (lower = stronger binding) (broad panel of kinases [2]): 93%
- percent of control binding remaining (lower = stronger binding) (broad panel of kinases [3]): 89%
- percent of control binding remaining (lower = stronger binding) (broad panel of kinases [4]): 100%
- percent of control binding remaining (lower = stronger binding) (broad panel of kinases [5]): 1.6%
- percent of control binding remaining (lower = stronger binding) (broad panel of kinases [6]): 8.6%
- percent of control binding remaining (lower = stronger binding) (broad panel of kinases [7]): 89%
- percent of control binding remaining (lower = stronger binding) (broad panel of kinases [8]): 75%
- percent of control binding remaining (lower = stronger binding) (broad panel of kinases [9]): 100%
- percent of control binding remaining (lower = stronger binding) (broad panel of kinases [10]): 98%
- percent of control binding remaining (lower = stronger binding) (broad panel of kinases [11]): 72%
- % change compared to control (broad panel of kinases [12]): 100%
- percent of control binding remaining (lower = stronger binding) (broad panel of kinases [13]): 99%
- percent of control binding remaining (lower = stronger binding) (broad panel of kinases [14]): 96%
- percent of control binding remaining (lower = stronger binding) (broad panel of kinases [15]): 93%
- percent of control binding remaining (lower = stronger binding) (broad panel of kinases [16]): 92%
- percent of control binding remaining (lower = stronger binding) (broad panel of kinases [17]): 99%
- percent of control binding remaining (lower = stronger binding) (broad panel of kinases [18]): 94%
- percent of control binding remaining (lower = stronger binding) (broad panel of kinases [19]): 94%
- percent of control binding remaining (lower = stronger binding) (broad panel of kinases [20]): 5.6%
- percent of control binding remaining (lower = stronger binding) (broad panel of kinases [21]): 92%
- percent of control binding remaining (lower = stronger binding) (broad panel of kinases [22]; RPS6KA4(Kin.Dom.1-N-terminal)): 100%
- percent of control binding remaining (lower = stronger binding) (broad panel of kinases [22]; RPS6KA4(Kin.Dom.2-C-terminal)): 96%
- percent of control binding remaining (lower = stronger binding) (broad panel of kinases [23]): 11%
- percent of control binding remaining (lower = stronger binding) (broad panel of kinases [24]): 100%
- percent of control binding remaining (lower = stronger binding) (broad panel of kinases [25]): 100%
- percent of control binding remaining (lower = stronger binding) (broad panel of kinases [26]): 92%
- percent of control binding remaining (lower = stronger binding) (broad panel of kinases [27]): 1.6%
- percent of control binding remaining (lower = stronger binding) (broad panel of kinases [28]): 93%
- percent of control binding remaining (lower = stronger binding) (broad panel of kinases [29]): 83%
- percent of control binding remaining (lower = stronger binding) (broad panel of kinases [30]): 100%
- percent of control binding remaining (lower = stronger binding) (broad panel of kinases [31]): 100%
- percent of control binding remaining (lower = stronger binding) (broad panel of kinases [32]): 99%
- percent of control binding remaining (lower = stronger binding) (broad panel of kinases [33]): 81%
- percent of control binding remaining (lower = stronger binding) (broad panel of kinases [34]): 100%
- percent of control binding remaining (lower = stronger binding) (broad panel of kinases [35]): 92%
- percent of control binding remaining (lower = stronger binding) (broad panel of kinases [36]): 83%
- percent of control binding remaining (lower = stronger binding) (broad panel of kinases [37]): 87%

Structure (SMILES): C=CC(=O)N1CC[C@H](Nc2nccc(Nc3ncc(C(=O)Nc4c(C)cccc4C)s3)n2)C1 [Example I-3]
- percent of control binding remaining (lower = stronger binding) (broad panel of kinases [1]): 81%
- percent of control binding remaining (lower = stronger binding) (broad panel of kinases [2]): 93%
- percent of control binding remaining (lower = stronger binding) (broad panel of kinases [3]): 94%
- percent of control binding remaining (lower = stronger binding) (broad panel of kinases [4]): 100%
- percent of control binding remaining (lower = stronger binding) (broad panel of kinases [5]): 1.6%
- percent of control binding remaining (lower = stronger binding) (broad panel of kinases [6]): 8.4%
- percent of control binding remaining (lower = stronger binding) (broad panel of kinases [7]): 100%
- percent of control binding remaining (lower = stronger binding) (broad panel of kinases [8]): 51%
- percent of control binding remaining (lower = stronger binding) (broad panel of kinases [9]): 100%
- percent of control binding remaining (lower = stronger binding) (broad panel of kinases [10]): 100%
- percent of control binding remaining (lower = stronger binding) (broad panel of kinases [11]): 76%
- % change compared to control (broad panel of kinases [12]): 100%
- percent of control binding remaining (lower = stronger binding) (broad panel of kinases [13]): 89%
- percent of control binding remaining (lower = stronger binding) (broad panel of kinases [14]): 97%
- percent of control binding remaining (lower = stronger binding) (broad panel of kinases [15]): 100%
- percent of control binding remaining (lower = stronger binding) (broad panel of kinases [16]): 78%
- percent of control binding remaining (lower = stronger binding) (broad panel of kinases [17]): 100%
- percent of control binding remaining (lower = stronger binding) (broad panel of kinases [18]): 70%
- percent of control binding remaining (lower = stronger binding) (broad panel of kinases [19]): 94%
- percent of control binding remaining (lower = stronger binding) (broad panel of kinases [20]): 2.6%
- percent of control binding remaining (lower = stronger binding) (broad panel of kinases [21]): 83%
- percent of control binding remaining (lower = stronger binding) (broad panel of kinases [22]; RPS6KA4(Kin.Dom.1-N-terminal)): 100%
- percent of control binding remaining (lower = stronger binding) (broad panel of kinases [22]; RPS6KA4(Kin.Dom.2-C-terminal)): 100%
- percent of control binding remaining (lower = stronger binding) (broad panel of kinases [23]): 9.4%
- percent of control binding remaining (lower = stronger binding) (broad panel of kinases [24]): 100%
- percent of control binding remaining (lower = stronger binding) (broad panel of kinases [25]): 100%
- percent of control binding remaining (lower = stronger binding) (broad panel of kinases [26]): 100%
- percent of control binding remaining (lower = stronger binding) (broad panel of kinases [27]): 2.1%
- percent of control binding remaining (lower = stronger binding) (broad panel of kinases [28]): 95%
- percent of control binding remaining (lower = stronger binding) (broad panel of kinases [29]): 76%
- percent of control binding remaining (lower = stronger binding) (broad panel of kinases [30]): 98%
- percent of control binding remaining (lower = stronger binding) (broad panel of kinases [31]): 100%
- percent of control binding remaining (lower = stronger binding) (broad panel of kinases [32]): 65%
- percent of control binding remaining (lower = stronger binding) (broad panel of kinases [33]): 81%
- percent of control binding remaining (lower = stronger binding) (broad panel of kinases [34]): 81%
- percent of control binding remaining (lower = stronger binding) (broad panel of kinases [35]): 100%
- percent of control binding remaining (lower = stronger binding) (broad panel of kinases [36]): 49%
- percent of control binding remaining (lower = stronger binding) (broad panel of kinases [37]): 91%

From patent publication US10844077B2, “Thiazolyl-containing compounds for treating proliferative diseases” (Dana-Farber Cancer Institute, Inc., priority 2014, dated 2020)
